Data as given in the NIST ThermoML archive (doi:10.1016/j.jct.2015.01.004).
Values joined by “and” are separate entries in the source; they are usually repeats but may differ in a detail not shown here. Identical values can stand only once.

Test: molar heat capacity at constant pressure; xn = mol fraction of the nth substance listed
Conditions: 100 kPa

[Si] [silicon] + [Li]
Conditions | molar heat capacity at constant pressure
453.6 K, Crystal of intercomponent compound 1, Small sample (50 mg) DSC, x2 = 0.81 | 25.67 J/K/mol
460 K, Crystal of intercomponent compound 1, relaxation calorimetry + DSC, x2 = 0.81 | 25.6 J/K/mol
460 K, Crystal of intercomponent compound 2, relaxation calorimetry + DSC, x2 = 0.804 | 26.23 J/K/mol
463.31 K, Crystal of intercomponent compound 2, Small sample (50 mg) DSC, x2 = 0.804 | 26.1 J/K/mol and 26.34 J/K/mol
463.5 K, Crystal of intercomponent compound 1, Small sample (50 mg) DSC, x2 = 0.81 | 25.45 J/K/mol
463.51 K, Crystal of intercomponent compound 1, Small sample (50 mg) DSC, x2 = 0.81 | 25.78 J/K/mol
473.22 K, Crystal of intercomponent compound 2, Small sample (50 mg) DSC, x2 = 0.804 | 26.29 J/K/mol and 26.62 J/K/mol
473.42 K, Crystal of intercomponent compound 1, Small sample (50 mg) DSC, x2 = 0.81 | 25.23 J/K/mol
473.43 K, Crystal of intercomponent compound 1, Small sample (50 mg) DSC, x2 = 0.81 | 26 J/K/mol
480 K, Crystal of intercomponent compound 1, relaxation calorimetry + DSC, x2 = 0.81 | 25.91 J/K/mol
480 K, Crystal of intercomponent compound 2, relaxation calorimetry + DSC, x2 = 0.804 | 26.66 J/K/mol
483.13 K, Crystal of intercomponent compound 2, Small sample (50 mg) DSC, x2 = 0.804 | 26.48 J/K/mol and 26.77 J/K/mol
483.33 K, Crystal of intercomponent compound 1, Small sample (50 mg) DSC, x2 = 0.81 | 25.45 J/K/mol
483.34 K, Crystal of intercomponent compound 1, Small sample (50 mg) DSC, x2 = 0.81 | 26.11 J/K/mol
493.04 K, Crystal of intercomponent compound 2, Small sample (50 mg) DSC, x2 = 0.804 | 26.73 J/K/mol and 26.89 J/K/mol
493.24 K, Crystal of intercomponent compound 1, Small sample (50 mg) DSC, x2 = 0.81 | 25.56 J/K/mol
493.26 K, Crystal of intercomponent compound 1, Small sample (50 mg) DSC, x2 = 0.81 | 26.32 J/K/mol
500 K, Crystal of intercomponent compound 1, relaxation calorimetry + DSC, x2 = 0.81 | 26.22 J/K/mol
500 K, Crystal of intercomponent compound 2, relaxation calorimetry + DSC, x2 = 0.804 | 27.09 J/K/mol
502.95 K, Crystal of intercomponent compound 2, Small sample (50 mg) DSC, x2 = 0.804 | 26.84 J/K/mol and 27.04 J/K/mol
503.15 K, Crystal of intercomponent compound 1, Small sample (50 mg) DSC, x2 = 0.81 | 25.78 J/K/mol
503.17 K, Crystal of intercomponent compound 1, Small sample (50 mg) DSC, x2 = 0.81 | 26.43 J/K/mol
512.86 K, Crystal of intercomponent compound 2, Small sample (50 mg) DSC, x2 = 0.804 | 27 J/K/mol and 27.24 J/K/mol
513.06 K, Crystal of intercomponent compound 1, Small sample (50 mg) DSC, x2 = 0.81 | 25.89 J/K/mol
513.08 K, Crystal of intercomponent compound 1, Small sample (50 mg) DSC, x2 = 0.81 | 26.54 J/K/mol
520 K, Crystal of intercomponent compound 1, relaxation calorimetry + DSC, x2 = 0.81 | 26.54 J/K/mol
520 K, Crystal of intercomponent compound 2, relaxation calorimetry + DSC, x2 = 0.804 | 27.52 J/K/mol
522.77 K, Crystal of intercomponent compound 2, Small sample (50 mg) DSC, x2 = 0.804 | 27.23 J/K/mol and 27.49 J/K/mol
522.97 K, Crystal of intercomponent compound 1, Small sample (50 mg) DSC, x2 = 0.81 | 26.11 J/K/mol
522.99 K, Crystal of intercomponent compound 1, Small sample (50 mg) DSC, x2 = 0.81 | 26.76 J/K/mol
532.68 K, Crystal of intercomponent compound 2, Small sample (50 mg) DSC, x2 = 0.804 | 27.46 J/K/mol and 27.67 J/K/mol
532.88 K, Crystal of intercomponent compound 1, Small sample (50 mg) DSC, x2 = 0.81 | 26.21 J/K/mol
532.9 K, Crystal of intercomponent compound 1, Small sample (50 mg) DSC, x2 = 0.81 | 26.98 J/K/mol
540 K, Crystal of intercomponent compound 1, relaxation calorimetry + DSC, x2 = 0.81 | 26.88 J/K/mol
540 K, Crystal of intercomponent compound 2, relaxation calorimetry + DSC, x2 = 0.804 | 27.95 J/K/mol
542.58 K, Crystal of intercomponent compound 2, Small sample (50 mg) DSC, x2 = 0.804 | 27.67 J/K/mol and 27.88 J/K/mol
542.79 K, Crystal of intercomponent compound 1, Small sample (50 mg) DSC, x2 = 0.81 | 26.54 J/K/mol
542.81 K, Crystal of intercomponent compound 1, Small sample (50 mg) DSC, x2 = 0.81 | 27.31 J/K/mol
552.5 K, Crystal of intercomponent compound 2, Small sample (50 mg) DSC, x2 = 0.804 | 27.8 J/K/mol and 28 J/K/mol
552.7 K, Crystal of intercomponent compound 1, Small sample (50 mg) DSC, x2 = 0.81 | 26.76 J/K/mol
552.72 K, Crystal of intercomponent compound 1, Small sample (50 mg) DSC, x2 = 0.81 | 27.53 J/K/mol
560 K, Crystal of intercomponent compound 1, relaxation calorimetry + DSC, x2 = 0.81 | 27.23 J/K/mol
560 K, Crystal of intercomponent compound 2, relaxation calorimetry + DSC, x2 = 0.804 | 28.38 J/K/mol
562.41 K, Crystal of intercomponent compound 2, Small sample (50 mg) DSC, x2 = 0.804 | 27.97 J/K/mol and 28.24 J/K/mol
562.61 K, Crystal of intercomponent compound 1, Small sample (50 mg) DSC, x2 = 0.81 | 27.09 J/K/mol
562.63 K, Crystal of intercomponent compound 1, Small sample (50 mg) DSC, x2 = 0.81 | 27.75 J/K/mol
572.33 K, Crystal of intercomponent compound 2, Small sample (50 mg) DSC, x2 = 0.804 | 28.21 J/K/mol and 28.37 J/K/mol
572.52 K, Crystal of intercomponent compound 1, Small sample (50 mg) DSC, x2 = 0.81 | 27.31 J/K/mol
572.54 K, Crystal of intercomponent compound 1, Small sample (50 mg) DSC, x2 = 0.81 | 27.97 J/K/mol
580 K, Crystal of intercomponent compound 1, relaxation calorimetry + DSC, x2 = 0.81 | 27.6 J/K/mol
580 K, Crystal of intercomponent compound 2, relaxation calorimetry + DSC, x2 = 0.804 | 28.81 J/K/mol
582.24 K, Crystal of intercomponent compound 2, Small sample (50 mg) DSC, x2 = 0.804 | 28.41 J/K/mol and 28.65 J/K/mol
582.43 K, Crystal of intercomponent compound 1, Small sample (50 mg) DSC, x2 = 0.81 | 27.53 J/K/mol
582.45 K, Crystal of intercomponent compound 1, Small sample (50 mg) DSC, x2 = 0.81 | 28.19 J/K/mol
592.15 K, Crystal of intercomponent compound 2, Small sample (50 mg) DSC, x2 = 0.804 | 28.65 J/K/mol and 28.85 J/K/mol
592.34 K, Crystal of intercomponent compound 1, Small sample (50 mg) DSC, x2 = 0.81 | 27.86 J/K/mol
592.36 K, Crystal of intercomponent compound 1, Small sample (50 mg) DSC, x2 = 0.81 | 28.41 J/K/mol
600 K, Crystal of intercomponent compound 1, relaxation calorimetry + DSC, x2 = 0.81 | 28 J/K/mol
600 K, Crystal of intercomponent compound 2, relaxation calorimetry + DSC, x2 = 0.804 | 29.25 J/K/mol
602.06 K, Crystal of intercomponent compound 2, Small sample (50 mg) DSC, x2 = 0.804 | 28.86 J/K/mol and 29.05 J/K/mol
602.26 K, Crystal of intercomponent compound 1, Small sample (50 mg) DSC, x2 = 0.81 | 28.19 J/K/mol
602.27 K, Crystal of intercomponent compound 1, Small sample (50 mg) DSC, x2 = 0.81 | 28.63 J/K/mol
611.97 K, Crystal of intercomponent compound 2, Small sample (50 mg) DSC, x2 = 0.804 | 29.02 J/K/mol and 29.19 J/K/mol
612.17 K, Crystal of intercomponent compound 1, Small sample (50 mg) DSC, x2 = 0.81 | 28.3 J/K/mol
612.18 K, Crystal of intercomponent compound 1, Small sample (50 mg) DSC, x2 = 0.81 | 28.74 J/K/mol
620 K, Crystal of intercomponent compound 1, relaxation calorimetry + DSC, x2 = 0.81 | 28.43 J/K/mol
620 K, Crystal of intercomponent compound 2, relaxation calorimetry + DSC, x2 = 0.804 | 29.68 J/K/mol
621.88 K, Crystal of intercomponent compound 2, Small sample (50 mg) DSC, x2 = 0.804 | 29.19 J/K/mol and 29.48 J/K/mol
622.08 K, Crystal of intercomponent compound 1, Small sample (50 mg) DSC, x2 = 0.81 | 28.41 J/K/mol
622.09 K, Crystal of intercomponent compound 1, Small sample (50 mg) DSC, x2 = 0.81 | 28.96 J/K/mol
631.8 K, Crystal of intercomponent compound 2, Small sample (50 mg) DSC, x2 = 0.804 | 29.46 J/K/mol and 29.65 J/K/mol
631.99 K, Crystal of intercomponent compound 1, Small sample (50 mg) DSC, x2 = 0.81 | 28.74 J/K/mol
632.01 K, Crystal of intercomponent compound 1, Small sample (50 mg) DSC, x2 = 0.81 | 29.07 J/K/mol
640 K, Crystal of intercomponent compound 1, relaxation calorimetry + DSC, x2 = 0.81 | 28.9 J/K/mol
640 K, Crystal of intercomponent compound 2, relaxation calorimetry + DSC, x2 = 0.804 | 30.11 J/K/mol
641.71 K, Crystal of intercomponent compound 2, Small sample (50 mg) DSC, x2 = 0.804 | 29.67 J/K/mol and 29.92 J/K/mol
641.89 K, Crystal of intercomponent compound 1, Small sample (50 mg) DSC, x2 = 0.81 | 28.96 J/K/mol
641.92 K, Crystal of intercomponent compound 1, Small sample (50 mg) DSC, x2 = 0.81 | 29.29 J/K/mol
651.63 K, Crystal of intercomponent compound 2, Small sample (50 mg) DSC, x2 = 0.804 | 29.86 J/K/mol and 30.21 J/K/mol
651.81 K, Crystal of intercomponent compound 1, Small sample (50 mg) DSC, x2 = 0.81 | 29.07 J/K/mol
651.84 K, Crystal of intercomponent compound 1, Small sample (50 mg) DSC, x2 = 0.81 | 29.51 J/K/mol
